Data from patent publication US20240150377A1, “MODULATORS OF CYSTIC FIBROSIS TRANSMEMBRANE CONDUCTANCE REGULATOR” (VERTEX PHARMACEUTICALS INCORPORATED, priority 2020, published 2024).
pEC50: −log10 of the molar value.

Target: T1, CFTR (Homo sapiens, UniProt P13569, DEL508-508)
T1 construct: endogenous in cells; host or cells: primary human bronchial epithelial cells from CF subjects (F508del/MF-HBE), differentiated at air-liquid interface
Experiment: HBE2 assay: Ussing chamber assay of CFTR-mediated short-circuit currents
Type: cell-based
Conditions: 3 μM corrector; F508del/MF-HBE cells; with 44 nM potentiator, 18-24 hours, 20% human serum
Outline: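 Corrector activity read as CFTR-dependent ISC (μA/cm^2): peak forskolin current minus post-inhibitor steady state. Measured at 37 °C, voltage clamp at 0 mV, on F508del/MF-HBE epithelia grown >14 days air-liquid interface in Ussing chambers.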

T1 sequence (P13569 with tags, fused parts or gaps DEL508-508): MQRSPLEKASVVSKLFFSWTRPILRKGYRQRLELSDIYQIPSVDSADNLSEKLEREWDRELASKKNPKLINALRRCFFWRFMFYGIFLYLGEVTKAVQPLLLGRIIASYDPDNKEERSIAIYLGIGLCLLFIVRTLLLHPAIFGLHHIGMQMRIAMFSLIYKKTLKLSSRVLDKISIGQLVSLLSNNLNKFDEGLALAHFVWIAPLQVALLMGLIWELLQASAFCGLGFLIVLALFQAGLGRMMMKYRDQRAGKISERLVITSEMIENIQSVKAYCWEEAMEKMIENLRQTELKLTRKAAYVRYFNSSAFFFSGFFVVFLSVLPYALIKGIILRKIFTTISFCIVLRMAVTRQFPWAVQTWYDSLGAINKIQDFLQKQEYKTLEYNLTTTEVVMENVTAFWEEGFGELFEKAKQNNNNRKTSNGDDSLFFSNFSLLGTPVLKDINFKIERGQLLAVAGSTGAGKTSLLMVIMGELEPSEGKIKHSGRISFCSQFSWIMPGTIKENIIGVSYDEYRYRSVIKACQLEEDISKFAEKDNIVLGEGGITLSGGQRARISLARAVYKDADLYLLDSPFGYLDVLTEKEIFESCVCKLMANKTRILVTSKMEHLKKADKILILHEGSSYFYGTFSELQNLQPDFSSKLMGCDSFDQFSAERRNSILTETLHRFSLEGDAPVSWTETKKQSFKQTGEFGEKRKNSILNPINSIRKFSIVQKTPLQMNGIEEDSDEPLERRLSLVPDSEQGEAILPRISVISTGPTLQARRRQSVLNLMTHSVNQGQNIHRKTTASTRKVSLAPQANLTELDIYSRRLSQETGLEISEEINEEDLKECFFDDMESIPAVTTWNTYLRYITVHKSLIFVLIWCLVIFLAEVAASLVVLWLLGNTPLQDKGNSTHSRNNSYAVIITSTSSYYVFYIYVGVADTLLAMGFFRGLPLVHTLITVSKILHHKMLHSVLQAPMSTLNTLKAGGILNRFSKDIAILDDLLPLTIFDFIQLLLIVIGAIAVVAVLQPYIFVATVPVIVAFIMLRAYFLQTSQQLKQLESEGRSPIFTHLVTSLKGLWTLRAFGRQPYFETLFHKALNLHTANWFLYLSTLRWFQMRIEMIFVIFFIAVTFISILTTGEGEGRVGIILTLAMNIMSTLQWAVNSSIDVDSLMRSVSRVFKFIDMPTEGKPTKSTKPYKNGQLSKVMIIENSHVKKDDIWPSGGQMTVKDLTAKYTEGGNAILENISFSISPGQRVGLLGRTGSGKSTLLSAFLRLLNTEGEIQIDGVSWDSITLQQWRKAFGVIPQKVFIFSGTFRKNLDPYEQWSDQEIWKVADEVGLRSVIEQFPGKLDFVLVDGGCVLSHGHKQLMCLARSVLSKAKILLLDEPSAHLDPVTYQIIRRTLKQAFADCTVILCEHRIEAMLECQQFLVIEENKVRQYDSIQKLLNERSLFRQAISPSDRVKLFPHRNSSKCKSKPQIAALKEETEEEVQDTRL

SMILES | HBE2 Activity at 3 μM (%)
COCC1(CN(C)c2cncc(CN3C(=O)c4cccc(c4)S(=O)(=O)Nc4nc(cc(-c5c(C)cccc5C)n4)OC[C@H]3CCC(C)(C)C)n2)CC1 [Compound 1876] | +++ (+++ is >60+)
Cc1cccc(C)c1-c1cc2nc(n1)NS(=O)(=O)c1cccc(c1)C(=O)N(Cc1cncc(N(C)C(C)C)n1)[C@H](CC1CCCCC1)CO2 [Compound 1825] | +++ (+++ is >60+)
CCN(C)c1cncc(CN2C(=O)c3cccc(c3)S(=O)(=O)Nc3nc(cc(-c4c(C)cccc4C)n3)OC[C@H]2CCC(C)(C)C)n1 [Compound 1807] | +++ (+++ is >60+)
Cc1cccc(C)c1-c1cc2nc(n1)NS(=O)(=O)c1cccc(c1)C(=O)N(Cc1nccc(N(C)C(C)C)n1)[C@H](CCC(C)C)CO2 [Compound 1734] | +++ (+++ is >60+)
Cc1cccc(C)c1-c1cc2nc(n1)NS(=O)(=O)c1cccc(c1)C(=O)N(Cc1cncc(N3CCO[C@@H](C)[C@H]3C)n1)[C@H](CC(C)(C)C)CO2 (stereo in doubt) [Compound 1760] | +++ (+++ is >60+)
Cc1cccc(C)c1-c1cc2nc(n1)NS(=O)(=O)c1cccc(c1)C(=O)N(Cc1cnc(C)c(N(C)C3CCC3)n1)[C@H](CC(C)(C)C)CO2 [Compound 1714] | +++ (+++ is >60+)
Cc1cccc(C)c1-c1cc2nc(n1)NS(=O)(=O)c1cccc(c1)C(=O)N(Cc1cncc(N(C)C3CC(F)(F)C3)n1)[C@H](COC1CC1)CO2 [Compound 1905] | +++ (+++ is >60+)
Cc1cccc(C)c1-c1cc2nc(n1)NS(=O)(=O)c1cccc(c1)C(=O)N(Cc1cnc3cc(C(C)C)n(C)c3n1)[C@H](CC1(C(F)(F)F)CC1)CO2 [Compound 1835] | +++ (+++ is >60+)
Cc1cccc(C)c1-c1cc2nc(n1)NS(=O)(=O)c1cccc(c1)C(=O)N(Cc1cncc(N3CCC[C@H]3C)n1)[C@H](CC1CC(C)(C)C1)CO2 [Compound 1900] | + (+ is <300))
CCN(c1cncc(CN2C(=O)c3cccc(c3)S(=O)(=O)Nc3nc(cc(-c4c(C)cccc4C)n3)OC[C@H]2CCC(C)C)n1)C1CCC1 [Compound 1764] | +++ (+++ is >60+)
Cc1cccc(C)c1-c1cc2nc(n1)NS(=O)(=O)c1cccc(c1)C(=O)N(Cc1cncc(N3C[C@H]4CCCCC43)n1)[C@H](CC(C)(C)C)CO2 (stereo in doubt) [Compound 1799] | +++ (+++ is >60+)
Cc1cccc(C)c1-c1cc2nc(n1)NS(=O)(=O)c1cccc(c1)C(=O)N(Cc1cncc(N3CC[C@H]3C)n1)[C@H](COC(C)C)CO2 [Compound 1926] | +++ (+++ is >60+)
Cc1cccc(C)c1-c1cc2nc(n1)NS(=O)(=O)c1cccc(c1)C(=O)N(Cc1cncc(N3CCC(C)(C)[C@H]3C)n1)[C@H](CC(C)(C)C)CO2 (stereo in doubt) [Compound 1723] | +++ (+++ is >60+)
Cc1cccc(C)c1-c1cc2nc(n1)NS(=O)(=O)c1cccc(c1)C(=O)N(Cc1cncc(N3CCCC[C@H]3C)n1)[C@H](CC1(C)CCC1)CO2 [Compound 1744] | +++ (+++ is >60+)
Cc1cccc(C)c1-c1cc2nc(n1)NS(=O)(=O)c1cccc(c1)C(=O)N(Cc1cncc(N(C)C3CCC3)n1)[C@H](CC1CC(C)(C)C1)CO2 (single isomer, unassigned) [Compound 1339, 12-[[6-[Cyclobutyl(methyl)amino]pyrazin-2-yl]methyl]-11-[(3,3-dimethylcyclobutyl)methyl]-6-(2,6-dimethylphenyl)-2,2-dioxo-9-oxa-2λ^6-thia-3,5,12,19-tetrazatricyclo[12.3.1.14,8]nonadeca-1(18),4(19),5,7,14,16-hexaen-13-one] | +++ (+++ is >60+)
Cc1cccc(C)c1-c1cc2nc(n1)NS(=O)(=O)c1cccc(c1)C(=O)N(Cc1cncc(N(C)C3CCC3)n1)[C@H](C1CC(C)(C)C1)CO2 (stereo in doubt) [Compound 1895] | ++ (++ is 30-60%)
Cc1cccc(C)c1-c1cc2nc(n1)NS(=O)(=O)c1cccc(c1)C(=O)N(Cc1cncc(N3CC[C@H]4CC[C@H]43)n1)[C@H](CCC(C)(C)C)CO2 [Compound 1854] | +++ (+++ is >60+)
Cc1cccc(C)c1-c1cc2nc(n1)NS(=O)(=O)c1cccc(c1)C(=O)N(Cc1cncc(N(C)[C@H]3C[C@H](F)C3)n1)[C@H](CCC1CC1)CO2 [Compound 1916] | +++ (+++ is >60+)
Cc1cccc(C)c1-c1cc2nc(n1)NS(=O)(=O)c1cccc(c1)C(=O)N(Cc1cncc(N(C)C3CCC3C)n1)[C@H](CC(C)(C)C)CO2 (some centres unmarked) [Compound 1785] | +++ (+++ is >60+)
Cc1cccc(C)c1-c1cc2nc(n1)NS(=O)(=O)c1cccc(c1)C(=O)N(Cc1cncc(N(C)CC3CC3)n1)[C@H](CCC(C)(C)C)CO2 [Compound 1810] | +++ (+++ is >60+)
Cc1cccc(C)c1-c1cc2nc(n1)NS(=O)(=O)c1cccc(c1)C(=O)N(Cc1cncc(N3CCCC[C@H]3C)n1)[C@@H](CCC(C)(C)F)CO2 (single isomer, unassigned) [Compound 1327] | +++ (+++ is >60+)
Cc1cccc(C)c1-c1cc2nc(n1)NS(=O)(=O)c1cccc(c1)C(=O)N(Cc1cncc(N3CC[C@H]3C)n1)[C@H](CC1CC1)CO2 [Compound 1778] | +++ (+++ is >60+)
COCC1CCN1c1cncc(CN2C(=O)c3cccc(c3)S(=O)(=O)Nc3nc(cc(-c4c(C)cccc4C)n3)OC[C@H]2COC2CC2)n1 (stereo in doubt) [Compound 1894] | +++ (+++ is >60+)
CCn1c(C)cc2ncc(CN3C(=O)c4cccc(c4)S(=O)(=O)Nc4nc(cc(-c5c(C)cccc5C)n4)OC[C@H]3CC(C)(C)C)nc21 [Compound 1910] | +++ (+++ is >60+)
Cc1cccc(C)c1-c1cc2nc(n1)NS(=O)(=O)c1cccc(c1)C(=O)N(Cc1cncc(N(C)C3CCC3)n1)[C@@H]1CCN(C3CC4(CCCC4)C3)C[C@H]1O2 [Compound 1768] | +++ (+++ is >60+)

Same assay, conditions: 3 μM; F508del/MF-HBE cells; with 44 nM potentiator; 18-24 hours; 20% human serum

SMILES | HBE2 Activity at 3 μM (%)
CNC(=O)OCCN(C)c1cncc(CN2C(=O)c3cccc(c3)S(=O)(=O)Nc3nc(cc(-c4c(C)cccc4C)n3)OC[C@H]2CC(C)(C)C)n1 [Compound 1666] | +++ (+++ is >60+)
Cc1cccc(C)c1-c1cc2nc(n1)NS(=O)(=O)c1cccc(c1)C(=O)N(Cc1cncc(N(C)C3CCC3)n1)[C@H](CCC(C)C)CO2 [Compound 1685] | +++ (+++ is >60+)
Cc1cccc(C)c1-c1cc2nc(n1)NS(=O)(=O)c1cccc(c1)C(=O)N(Cc1cncc(N3CCCC3c3ccnn3C)n1)[C@H](CC(C)(C)C)CO2 (some centres unmarked) [Compound 1606] | +++ (+++ is >60+)
Cc1cccc(C)c1-c1cc2nc(n1)NS(=O)(=O)c1cccc(c1)C(=O)N(Cc1coc(N(C)CC3CCC3)n1)[C@H](CC(C)(C)C)CO2 [Compound 1646] | +++ (+++ is >60+)
Cc1cccc(C)c1-c1cc2nc(n1)NS(=O)(=O)c1cccc(c1)C(=O)N(Cc1cncc(N3CC(=O)N(C)C[C@H]3C)n1)[C@H](CC(C)(C)C)CO2 [Compound 1644] | +++ (+++ is >60+)
CCc1ccnc(CN2C(=O)c3cccc(c3)S(=O)(=O)Nc3nc(cc(-c4c(C)cccc4C)n3)OC[C@H]2CC(C)(C)C)n1 [Compound 1302, (11R)-6-(2,6-Dimethylphenyl)-11-(2,2-dimethylpropyl)-12-[(4-ethylpyrimidin-2-yl)methyl]-2,2-dioxo-9-oxa-2λ^6-thia-3,5,12,19-tetrazatricyclo[12.3.1.14,8]nonadeca-1(18),4,6,8(19),14,16-hexaen-13-one] | +++ (+++ is >60+)
Cc1cccc(C)c1-c1cc2nc(n1)NS(=O)(=O)c1cccc(c1)C(=O)N(Cc1cncc(N3CC4CC3C4)n1)[C@H](CC(C)(C)C)CO2 [Compound 1687] | +++ (+++ is >60+)
Cc1cccc(C)c1-c1cc2nc(n1)NS(=O)(=O)c1cccc(c1)C(=O)N(Cc1ncc(OC(C)C)cn1)[C@H]([C@@H](C)C(C)C)CO2 (stereo in doubt) [Compound 1572] | +++ (+++ is >60+)
CC[C@H](C)N(C)c1cncc(CN2C(=O)c3cccc(c3)S(=O)(=O)Nc3nc(cc(-c4c(C)cccc4C)n3)OC[C@H]2CC(C)(C)C)n1 [Compound 1673] | +++ (+++ is >60+)
Cc1cccc(C)c1-c1cc2nc(n1)NS(=O)(=O)c1cccc(c1)C(=O)N(Cc1cncc(N3CCC4OCCC43)n1)[C@H](CC(C)(C)C)CO2 (some centres unmarked) [Compound 1642] | +++ (+++ is >60+)

Same assay, conditions: F508del/MF-HBE cells; with 44 nM potentiator; 18-24 hours; 20% human serum

SMILES | pEC50
Cc1cccc(C)c1-c1cc2nc(n1)NS(=O)(=O)c1cccc(c1)C(=O)N(Cc1cncc(N(C)C3CCC3)n1)[C@H](CCC(C)C)CO2 [Compound 1685] | > 6.00
COC[C@H]1CCCCN1c1cncc(CN2C(=O)c3cccc(c3)S(=O)(=O)Nc3nc(cc(-c4c(C)cccc4C)n3)OC[C@H]2CC(C)(C)C)n1 [Compound 1539] | > 6.00
CC[C@H](C)N(C)c1cncc(CN2C(=O)c3cccc(c3)S(=O)(=O)Nc3nc(cc(-c4c(C)cccc4C)n3)OC[C@H]2CC(C)(C)C)n1 [Compound 1673] | > 6.00

Same assay, conditions: F508del/MF-HBE cells; with 44 nM potentiator; 18-24 hours; 20% human serum; read-out: HBE2 Max activity (%)

SMILES | Emax
Cc1cccc(C)c1-c1cc2nc(n1)NS(=O)(=O)c1cccc(c1)C(=O)N(Cc1cncc(N(C)C3CCC3)n1)[C@H](CCC(C)C)CO2 [Compound 1685] | > 60%
COC[C@H]1CCCCN1c1cncc(CN2C(=O)c3cccc(c3)S(=O)(=O)Nc3nc(cc(-c4c(C)cccc4C)n3)OC[C@H]2CC(C)(C)C)n1 [Compound 1539] | > 60%
CC[C@H](C)N(C)c1cncc(CN2C(=O)c3cccc(c3)S(=O)(=O)Nc3nc(cc(-c4c(C)cccc4C)n3)OC[C@H]2CC(C)(C)C)n1 [Compound 1673] | > 60%
